These results are taken from publication PMC4955970, “Stable, synthetic analogs of diadenosine tetraphosphate inhibit rat and human P2X3 receptors and inflammatory pain” (Molecular Pain, 2016).

The subject of assay [1] is CFA-induced thermal hyperalgesia. As to the kind of experiment: Hargreaves plantar test, CFA-induced thermal hyperalgesia. As to conditions: 20 µM; for period after intraplantar injection in which antinociceptive effect was observed: inflamed hindpaw. Type of assay: in vivo, rat. The protocol:
To induce chronic inflammatory hyperalgesia, rats were injected with complete Freund’s adjuvant (CFA, 100 μl of 50% solution) into the plantar surface of the right hindpaw 24 h prior to testing. Control animals were injected with 100 μl of pure saline. Injections of AppCH2ppA and AppNHppA (100 nM–100 μM) in 100 μl of 0.9% saline were made just before the beginning of the plantar test.
For intrathecal injection, a polyethylene-10 catheter was inserted into the rat’s subarachnoid space through a small incision at the cisterna magna, and the tip of the catheter was implanted at the L4 spinal segmental level. Animals were allowed to recover for at least four days before behavior tests. AppCH2ppA or vehicle (saline) was injected intrathecally (10 µl) and flushed with 10 µl of saline.
The Hargreaves technique[51] was used for thermal hyperalgesia studies (using the Ugo Basile Model 7370 Plantar Test). Paw withdrawal responses to noxious heat stimuli were measured in rats as described.[52] To measure response to noxious heat stimuli, each animal was placed in a Plexiglas chamber on a glass plate located above a light box. Radiant heat was applied by focused infrared (IR) beam to the middle of the plantar surface of rat hindpaw. When the animal lifted its foot, the IR beam was turned off. The time interval between the start of the IR beam and the foot lift was defined as the paw withdrawal latency. Each trial was repeated 13 times at 20-min intervals for each paw. A cut-off time of 30 s was used to prevent paw tissue damage.
Figure 10. Ap4A analogs reduced thermal hyperalgesia induced by complete Freund adjuvant (CFA) (Hargreaves plantar test). (a) Time course of the effects of subcutaneous injection of AppCH2ppA (20 µM) and AppNHppA (20 µM) on the paw withdrawal latency (PWL). […] (b) Bar graphs illustrating the effects of AppCH2ppA (20 µM) and AppNHppA (20 µM) on PWL. (c) Time course of effects of intraplantar and intrathecal administration of AppCH2ppA (20 µM) on PWL. […] (d) Bar graphs illustrating effects of intathecal and intraplantar administration of AppCH2ppA (20 µM) on the PWL (* vs. CFA, p < 0.05; *** vs. CFA, p < 0.001; ### vs. intrathecal, p < 0.001; seven rats for control, eight rats for CFA, six rats for intrathecal, and six rats for each compound for intraplantar injection were used).

Assay [2] deals with T1, rat P2X7 receptors (Rattus norvegicus, UniProt Q64663).
T1 construct: expressed in transfected cells; host or cells: HEK293
T1 sequence (Q64663 1-595): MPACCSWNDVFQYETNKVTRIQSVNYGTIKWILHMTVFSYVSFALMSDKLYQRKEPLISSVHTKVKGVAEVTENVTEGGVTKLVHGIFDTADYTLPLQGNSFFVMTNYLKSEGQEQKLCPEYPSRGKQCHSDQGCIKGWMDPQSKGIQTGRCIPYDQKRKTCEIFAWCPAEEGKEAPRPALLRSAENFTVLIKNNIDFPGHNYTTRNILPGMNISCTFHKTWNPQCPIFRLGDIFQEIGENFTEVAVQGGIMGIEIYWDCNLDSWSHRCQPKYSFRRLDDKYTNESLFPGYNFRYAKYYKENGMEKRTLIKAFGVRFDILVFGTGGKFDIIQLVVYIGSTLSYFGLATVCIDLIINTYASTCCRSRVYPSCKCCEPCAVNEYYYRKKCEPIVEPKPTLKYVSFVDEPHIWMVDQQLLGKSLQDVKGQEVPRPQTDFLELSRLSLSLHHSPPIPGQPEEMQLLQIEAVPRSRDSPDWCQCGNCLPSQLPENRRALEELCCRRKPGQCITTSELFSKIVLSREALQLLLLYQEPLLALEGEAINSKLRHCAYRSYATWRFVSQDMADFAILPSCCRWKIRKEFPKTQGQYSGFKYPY
As to the kind of experiment: Whole-cell patch clamp on HEK293 cells expressing rat P2X7 receptors (ATP-induced currents). Format: cell-based. As to conditions: 1 µM; 10 µM ATP every 2 min.

The structures appear in SMILES notation. “Also recorded” adds a separate entry of the source. A value given as a limit tells only on which side of the number the result lay.

On to `Nc1ncnc2c1ncn2[C@@H]1O[C@H](COP(=O)(O)OP(=O)(O)CP(=O)(O)OP(=O)(O)OC[C@H]2O[C@@H](n3cnc4c(N)ncnc43)C(O)C2O)C(O)C1O` (stereo partly drawn) [AppCH2ppA, diadenosine 5′,5′′′-P^1,P^4-(β,γ-methylene)tetraphosphate], for which, in assay [1] (intraplantar), the “duration of antinociceptive effect, intraplantar” value was determined as 180 min; the “pain inhibition, intraplantar administration” value is on record as 58%; the “time after intraplantar injection at which effect became potent” value was 20 min; the “period after intraplantar injection in which antinociceptive effect was observed” value was at most 200 min. Besides, in assay [1] (intrathecal), the “duration of antinociceptive effect, intrathecal” value came to 60 min; the “pain inhibition, intrathecal administration” value amounted to 22%; the “time after intrathecal injection at which effects were observed” value is 120 min.
As for `Nc1ncnc2c1ncn2[C@@H]1O[C@H](COP(=O)(O)OP(=O)(O)NP(=O)(O)OP(=O)(O)OC[C@H]2O[C@@H](n3cnc4c(N)ncnc43)[C@H](O)[C@@H]2O)[C@@H](O)[C@H]1O` [AppNHppA, diadenosine 5′,5′′′-P^1,P^4-(β,γ-imido)tetraphosphate], in assay [2], the “HAD or partial agonism effect on P2X7R-mediated currents” value was “did not produce any HAD or partial agonism effects; also recorded: does not inhibit”. Further, in assay [1] (intraplantar), the “duration of antinociceptive effect, intraplantar” value is recorded as 180 min; the “time after intraplantar injection at which effect became potent” value amounted to 20 min; the “period after intraplantar injection in which antinociceptive effect was observed” value was at most 200 min.
